Data as given in ChEMBL document CHEMBL1201862, “PubChem BioAssay data set” (2004).
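These data come from cells grown in 96-well plates and exposed to compound for 48 hours at five concentrations. The concentration for 50% growth inhibition is given as GI50.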 Activity calls are given as the source filed them. Cut-off read from the data, not from the text of the source: active = GI50 up to about 1.1 µM and inactive = higher.

How the values were obtained:
Experiment in all cases: inhibition of tumour cell growth, NCI panel, 48 h
786-0 = system: 786-0
DMS-273 = system: DMS-273
HCT-116 = system: HCT-116
HOP-62 = system: HOP-62
HT-29 = system: HT-29
MOLT-4 = system: MOLT-4
Malme-3M = system: Malme-3M
NCI-H522 = system: NCI-H522
OVCAR-3 = system: OVCAR-3
OVCAR-5 = system: OVCAR-5
SF-295 = system: SF-295
SK-MEL-28 = system: SK-MEL-28
SNB-19 = system: SNB-19
SNB-75 = system: SNB-75
HCC 2998 = system: HCC 2998
UACC-62 = system: UACC-62
DU-145 = system: DU-145
MCF7 = system: MCF7
PC-3 = system: PC-3
T47D = system: T47D

Measured: GI50

CN1Cc2c(nc(-c3ccc(Br)cc3)c[n+]2[O-])N(C)C1
inactive: 786-0 > 100 µM | DMS-273 > 100 µM | HCT-116 > 100 µM | HOP-62 > 100 µM | HT-29 > 100 µM | MOLT-4 > 100 µM | Malme-3M > 100 µM | NCI-H522 > 100 µM | OVCAR-3 > 100 µM | OVCAR-5 > 100 µM | SF-295 > 100 µM | SK-MEL-28 > 100 µM | SNB-19 > 100 µM | SNB-75 > 100 µM

COC(=O)CC1C[C@H](C#N)N(C(=O)c2ccccc2)C[C@@H]1CC[N+](=O)[O-] (some centres not stated)
inactive: 786-0 > 100 µM | DMS-273 > 100 µM | HCC 2998 > 100 µM | HCT-116 > 100 µM | HOP-62 > 100 µM | HT-29 > 100 µM | MOLT-4 > 100 µM | Malme-3M > 100 µM | OVCAR-3 > 100 µM | OVCAR-5 > 100 µM | SF-295 > 100 µM | SK-MEL-28 > 100 µM | SNB-19 > 100 µM | SNB-75 > 100 µM | UACC-62 > 100 µM

CN(C)/C=N/c1nc2ncn(CCOC(=O)c3ccccc3)c2c(=O)[nH]1
inactive: 786-0 > 100 µM | DMS-273 > 100 µM | HCT-116 > 100 µM | HOP-62 > 100 µM | HT-29 > 100 µM | Malme-3M > 100 µM | NCI-H522 > 100 µM | OVCAR-3 > 100 µM | OVCAR-5 > 100 µM | SF-295 > 100 µM | SK-MEL-28 > 100 µM | SNB-75 > 100 µM | UACC-62 > 100 µM

COCC(O)Cn1ccnc1[N+](=O)[O-] (configuration not stated) [MISONIDAZOLE]
inactive: 786-0 > 100 µM | DMS-273 > 100 µM | HCC 2998 > 100 µM | HCT-116 > 100 µM | HOP-62 > 100 µM | HT-29 > 100 µM | MOLT-4 > 100 µM | Malme-3M > 100 µM | NCI-H522 > 100 µM | OVCAR-3 > 100 µM | OVCAR-5 > 100 µM | SF-295 > 100 µM | SK-MEL-28 > 100 µM | SNB-19 > 100 µM

CC(/C(=N\Nc1ccccc1)c1ccc(O)cc1)C1C(=O)Oc2ccccc21 (configuration not stated)
inactive: 786-0 > 100 µM | DMS-273 > 100 µM | HCC 2998 > 100 µM | HCT-116 > 100 µM | HOP-62 > 100 µM | HT-29 > 100 µM | MOLT-4 > 100 µM | Malme-3M > 100 µM | OVCAR-3 > 100 µM | SF-295 > 100 µM | SNB-19 > 100 µM | SNB-75 55.7 µM | UACC-62 > 100 µM

CN1CCN(CCCCN2c3ccccc3Sc3ccc(N=[N+]=[N-])cc32)CC1
inactive: 786-0 7.76 µM | DU-145 12.9 µM | HCC 2998 3.74 µM | HCT-116 3.72 µM | HOP-62 15.2 µM | HT-29 2.07 µM | MCF7 4.17 µM | MOLT-4 2.41 µM | Malme-3M 2.43 µM | NCI-H522 5.01 µM | OVCAR-3 8.07 µM | OVCAR-5 9.55 µM | PC-3 4.65 µM | SF-295 12.2 µM | SK-MEL-28 1.84 µM | SNB-19 13.4 µM | SNB-75 4.55 µM | T47D 14.9 µM | UACC-62 2.08 µM

CN(C)/C=C1\CCc2ccc([N+](=O)[O-])cc2C1=O
inactive: 786-0 48.6 µM | DU-145 > 100 µM | HCC 2998 70.8 µM | HCT-116 17.9 µM | HOP-62 > 100 µM | HT-29 24.3 µM | MCF7 26 µM | MOLT-4 25.1 µM | Malme-3M 33 µM | NCI-H522 > 100 µM | OVCAR-3 18.3 µM | OVCAR-5 > 100 µM | PC-3 30.6 µM | SF-295 > 100 µM | SK-MEL-28 > 100 µM | SNB-19 > 100 µM | SNB-75 > 100 µM | T47D 26.7 µM | UACC-62 24.5 µM
